# Like-named read-outs stand apart in the source and are kept apart here.
# How the values were obtained:
# [1] = system: cocklebur; test: Test B pre-/postemergence herbicide test; format: in vivo, Xanthium strumarium; settings: Xanthium strumarium; for pest or weed control at 500 g/ha: 500 g ai/ha; for pest or weed control at 125 g/ha: 125 g ai/ha
# Outline: (§1)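 Seeds were planted and treated preemergence with compounds formulated in a non-phytotoxic solvent mixture containing surfactant, while plants at the 1- to 4-leaf stage (2 to 18 cm) received postemergence sprays. Flooded paddy plants were grown to the 2-leaf stage. After 13 to 15 days in a greenhouse, injury was visually rated 0–100 against untreated controls.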
# [2] = system: blackgrass; test: Test B postemergence herbicide test; format: in vivo, Alopecurus myosuroides; settings: scale 0 (no effect) to 100 (complete control)
# Outline: (§2)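 Postemergence plants were sprayed with formulated test chemicals at 2 to 18 cm height (1- to 4-leaf stage); paddy species were grown to the 2-leaf stage. After 13 to 15 days in a greenhouse, injury was rated visually against untreated controls on a 0–100 scale (0 = no effect, 100 = complete control).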
# [3] = system: wild oat; test: Test B postemergence herbicide test; format: in vivo, Avena fatua; settings: scale 0 (no effect) to 100 (complete control)
# Outline: (§3)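 Read-out: visual comparison with controls, scored 0 to 100, where 100 means complete control and 0 no effect. Formulated chemicals were applied postemergence to plants 2–18 cm tall (1- to 4-leaf), or to flooded-paddy plants at the 2-leaf stage, then held 13 to 15 days under glass.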
# [4] = system: ducksalad; test: Test B flooded paddy test; format: in vivo, Heteranthera limosa; settings: Heteranthera limosa, 336 h, 1000 g ai/ha, visual rating, scale 0 to 100 (0 no effect, 100 complete control), 13 to 15 days, read-out: Ducksalad plant response rating
# Outline: as §2
# [5] = system: lambsquarters; test: Test B pre-/postemergence herbicide test; format: in vivo, Chenopodium album; settings: Chenopodium album, 336 h; for pest or weed control at 125 g/ha: 125 g ai/ha
# Outline: (§4)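 Visual rating, 0 (no effect) to 100 (complete control), versus untreated controls after 13–15 d in greenhouse. Pre- and postemergence applications (postemergence plants 2–18 cm, 1–4 leaves); flooded paddy arm at 2-leaf stage. Compounds in non-phytotoxic solvent plus surfactant.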
# [6] = system: small flower umbrella sedge; test: Test B flooded paddy test; format: in vivo, Cyperus difformis; settings: Cyperus difformis, 336 h, 1000 g ai/ha, visual rating, scale 0 to 100 (0 no effect, 100 complete control), 13 to 15 days, read-out: Sedge, Umbrella plant response rating
# Outline: as §2
# [7] = system: pigweed; test: Test B pre-/postemergence herbicide test; format: in vivo, Amaranthus retroflexus; settings: Amaranthus retroflexus, 336 h; for pest or weed control at 125 g/ha: 125 g ai/ha
# Outline: as §4
# [8] = system: rice; test: Test B flooded paddy test; format: in vivo, Oryza sativa; settings: Oryza sativa, 336 h, 1000 g ai/ha, visual rating, scale 0 to 100 (0 no effect, 100 complete control), 13 to 15 days, read-out: Rice plant response rating
# Outline: as §3
# [9] = system: corn; test: Test B pre-/postemergence herbicide test; format: in vivo, Zea mays; settings: Zea mays
# Outline: as §4
# [10] = system: giant foxtail; test: Test B pre-/postemergence herbicide test; format: in vivo, Setaria faberi; settings: Setaria faberi, 336 h; for pest or weed control at 500 g/ha: 500 g ai/ha; for pest or weed control at 125 g/ha: 125 g ai/ha
# Outline: as §4
# [11] = system: morningglory; test: Test B pre-/postemergence herbicide test; format: in vivo, Ipomoea coccinea; settings: Ipomoea, 336 h; for pest or weed control at 125 g/ha: 125 g ai/ha
# Outline: as §1
# [12] = system: velvetleaf; test: Test B pre-/postemergence herbicide test; format: in vivo, Abutilon theophrasti; settings: Abutilon theophrasti, 336 h; for pest or weed control at 125 g/ha: 125 g ai/ha
# Outline: as §4
# [13] = system: barnyardgrass; test: Test B pre-/postemergence herbicide test; format: in vivo, Echinochloa crus-galli; settings: Echinochloa crus-galli; for pest or weed control at 500 g/ha: 500 g ai/ha; for pest or weed control at 125 g/ha: 125 g ai/ha
# Outline: as §1
# [14] = system: Surinam grass; test: Test B pre-/postemergence herbicide test; format: in vivo, Urochloa decumbens; settings: Urochloa decumbens; for pest or weed control at 125 g/ha: 125 g ai/ha
# Outline: as §4
# [15] = system: large crabgrass; test: Test B pre-/postemergence herbicide test; format: in vivo, Digitaria sanguinalis; settings: Digitaria sanguinalis; for pest or weed control at 500 g/ha: 500 g ai/ha; for pest or weed control at 125 g/ha: 125 g ai/ha
# Outline: as §4
# [16] = Postemergence, 500 g ai/ha, visual rating after 13 to 15 days
structure (smiles),measurement,setting,value
"CCn1nc(C(C)(C)C)cc1C(=O)Nc1cccc(C(=O)OCCF)c1 [Compound 82, 2-fluoroethyl 3-[[[3-(1,1-dimethylethyl)-1-ethyl-1H-pyrazol-5-yl]-carbonyl]amino]benzoate]",pest or weed control at 500 g/ha,"[1]; post-emergence, Postemergence, visual rating after 13 to 15 days, scale 0 (no effect) to 100 (complete control), read-out: Plant response rating, Cocklebur",100%
same,pest or weed control at 125 g/ha,"[1]; post-emergence, postemergence, visual rating, scale 0 (no effect) to 100 (complete control), read-out: Cocklebur plant response rating",80%
same,pest or weed control at 500 g/ha,"[1]; pre-emergence, Preemergence, scale 0 to 100, read-out: Cocklebur plant response rating",0%
same,pest or weed control at 125 g/ha,"[1]; pre-emergence, preemergence, 0 to 100 scale, 0 is no effect, 100 is complete control, read-out: Plant response rating, Cocklebur",0%
same,pest or weed control at 125 g/ha,"[2]; Alopecurus myosuroides, post-emergence, 336 h, postemergence, 125 g ai/ha, visual rating, read-out: Blackgrass plant response rating",0%
same,"Plant response rating, Blackgrass",[2]; [16],10
same,pest or weed control at 125 g/ha,"[3]; Avena fatua, post-emergence, 336 h, postemergence, 125 g ai/ha, visual rating, read-out: Oat, Wild plant response rating",10%
same,"Plant response rating, Oat, Wild",[3]; [16],30
same,pest or weed control at 1000 g/ha,[4],20%
same,pest or weed control at 500 g/ha,"[5]; post-emergence, Postemergence, 500 g ai/ha, visual rating after 13 to 15 days, scale 0 (no effect) to 100 (complete control), read-out: Plant response rating, Lambsquarters",50%
same,pest or weed control at 125 g/ha,"[5]; post-emergence, postemergence, visual rating, scale 0 (no effect) to 100 (complete control), read-out: Lambsquarters plant response rating",20%
same,pest or weed control at 125 g/ha,"[5]; pre-emergence, preemergence, 0 to 100 scale, 0 is no effect, 100 is complete control, read-out: Plant response rating, Lambsquarters",0%
same,pest or weed control at 1000 g/ha,[6],40%
same,pest or weed control at 500 g/ha,"[7]; post-emergence, Postemergence, 500 g ai/ha, visual rating after 13 to 15 days, scale 0 (no effect) to 100 (complete control), read-out: Plant response rating, Pigweed",100%
same,pest or weed control at 125 g/ha,"[7]; post-emergence, postemergence, visual rating, scale 0 (no effect) to 100 (complete control), read-out: Pigweed plant response rating",80%
same,pest or weed control at 125 g/ha,"[7]; pre-emergence, preemergence, 0 to 100 scale, 0 is no effect, 100 is complete control, read-out: Plant response rating, Pigweed",0%
same,plant injury at 1000 g/ha,[8],40%
same,"Corn plant response rating (crop injury, 0 = no effect, 100 = complete kill) at 500 g/ha","[9]; post-emergence, Postemergence, 500 g ai/ha, visual rating after 13 to 15 days, scale 0 (no effect) to 100 (complete control)",30%
same,plant injury at 125 g/ha,"[9]; post-emergence, postemergence, 125 g ai/ha, visual rating, scale 0 (no effect) to 100 (complete control), read-out: Corn plant response rating",20%
same,plant injury at 500 g/ha,"[9]; pre-emergence, Preemergence, 500 g ai/ha, scale 0 to 100, read-out: Corn plant response rating",0%
same,"Corn plant response rating (crop injury, 0 = no effect, 100 = complete kill) at 125 g/ha","[9]; pre-emergence, preemergence, 125 g ai/ha, 0 to 100 scale, 0 is no effect, 100 is complete control",0%
same,pest or weed control at 500 g/ha,"[10]; post-emergence, Postemergence, visual rating after 13 to 15 days, scale 0 (no effect) to 100 (complete control), read-out: Plant response rating, Foxtail, Giant",10%
same,pest or weed control at 125 g/ha,"[10]; post-emergence, postemergence, visual rating, scale 0 (no effect) to 100 (complete control), read-out: Foxtail, Giant plant response rating",10%
same,pest or weed control at 500 g/ha,"[10]; pre-emergence, Preemergence, scale 0 to 100, read-out: Foxtail, Giant plant response rating",0%
same,pest or weed control at 125 g/ha,"[10]; pre-emergence, preemergence, 0 to 100 scale, 0 is no effect, 100 is complete control, read-out: Plant response rating, Foxtail, Giant",0%
same,pest or weed control at 500 g/ha,"[11]; post-emergence, Postemergence, 500 g ai/ha, visual rating after 13 to 15 days, scale 0 (no effect) to 100 (complete control), read-out: Plant response rating, Morningglory",70%
same,pest or weed control at 125 g/ha,"[11]; post-emergence, postemergence, visual rating, scale 0 (no effect) to 100 (complete control), read-out: Morningglory plant response rating",10%
same,pest or weed control at 125 g/ha,"[11]; pre-emergence, preemergence, 0 to 100 scale, 0 is no effect, 100 is complete control, read-out: Plant response rating, Morningglory",0%
same,pest or weed control at 500 g/ha,"[12]; post-emergence, Postemergence, 500 g ai/ha, visual rating after 13 to 15 days, scale 0 (no effect) to 100 (complete control), read-out: Plant response rating, Velvetleaf",90%
same,pest or weed control at 125 g/ha,"[12]; post-emergence, postemergence, visual rating, scale 0 (no effect) to 100 (complete control), read-out: Velvetleaf plant response rating",80%
same,pest or weed control at 125 g/ha,"[12]; pre-emergence, preemergence, 0 to 100 scale, 0 is no effect, 100 is complete control, read-out: Plant response rating, Velvetleaf",0%
same,pest or weed control at 500 g/ha,"[13]; post-emergence, Postemergence, visual rating after 13 to 15 days, scale 0 (no effect) to 100 (complete control), read-out: Plant response rating, Barnyardgrass",20%
same,pest or weed control at 125 g/ha,"[13]; post-emergence, postemergence, visual rating, scale 0 (no effect) to 100 (complete control), read-out: Barnyardgrass plant response rating",10%
same,pest or weed control at 500 g/ha,"[13]; pre-emergence, Preemergence, scale 0 to 100, read-out: Barnyardgrass plant response rating",0%
same,pest or weed control at 125 g/ha,"[13]; pre-emergence, preemergence, 0 to 100 scale, 0 is no effect, 100 is complete control, read-out: Plant response rating, Barnyardgrass",0%
same,pest or weed control at 500 g/ha,"[14]; post-emergence, Postemergence, 500 g ai/ha, visual rating after 13 to 15 days, scale 0 (no effect) to 100 (complete control), read-out: Plant response rating, Surinam Grass",60%
same,pest or weed control at 125 g/ha,"[14]; post-emergence, postemergence, visual rating, scale 0 (no effect) to 100 (complete control), read-out: Surinam Grass plant response rating",30%
same,pest or weed control at 125 g/ha,"[14]; pre-emergence, preemergence, 0 to 100 scale, 0 is no effect, 100 is complete control, read-out: Plant response rating, Surinam Grass",0%
same,pest or weed control at 500 g/ha,"[15]; post-emergence, Postemergence, visual rating after 13 to 15 days, scale 0 (no effect) to 100 (complete control), read-out: Plant response rating, Crabgrass, Large",20%
same,pest or weed control at 125 g/ha,"[15]; post-emergence, postemergence, visual rating, scale 0 (no effect) to 100 (complete control), read-out: Crabgrass, Large plant response rating",10%
same,pest or weed control at 500 g/ha,"[15]; pre-emergence, Preemergence, scale 0 to 100, read-out: Crabgrass, Large plant response rating",0%
same,pest or weed control at 125 g/ha,"[15]; pre-emergence, preemergence, 0 to 100 scale, 0 is no effect, 100 is complete control, read-out: Plant response rating, Crabgrass, Large",0%

# — patent publication US20060069132A1, “Azolecarboxamide herbicides” (priority 2004, published 2006)
